Measurements from US20240131032A1, “AN ACTIVITY-GUIDED MAP OF ELECTROPHILE-CYSTEINE INTERACTIONS IN PRIMARY HUMAN IMMUNE CELLS” (The Scripps Research Institute, priority 2019, published 2024).
One block for each compound: values may come before it.

Key:
MYD88 = molecular target: T1, MYD88 (Homo sapiens, UniProt Q99836); assay: isoTOP-ABPP and TMT-ABPP cysteine engagement, MYD88; format: binding; conditions: scout fragments
T1 construct: endogenous in cells
Method: Activated or expanded T cells were re-suspended in RPMI media supplemented with 10% FBS, L-glutamine (2 mM), penicillin (100 U/mL), and streptomycin (100 μg/mL) at 2×10^6 cells/mL. The compounds were added to cells as 1000×DMSO stocks and mixed well with the media by pipetting up and down after addition. The cells were kept at 37° C. in 5% CO2 containing incubators for 3 h (or otherwise specified times), then pelleted by centrifugation (524 g, 5 min, 4° C.), washed with cold PBS (10 mL) and transferred to Eppendorf tubes (1 mL PBS). The cells were pelleted again (524 g, 5 min, 4° C.), flash-frozen, and kept at −80° C. until further analysis.
Activated or expanded primary human T cells were re-suspended in RPMI (1×10^6 cells/mL) containing 10% fetal bovine serum (FBS), penicillin (100 U/mL), streptomycin ([…]), and L-glutamine (2 mM). The cells were treated with DMSO or compounds for 3 h, pelleted (524 g, 5 min), washed with PBS, and lysed by sonication (2×8 pulses). Soluble and particulate proteomic fractions were separated by ultracentrifugation (100,000 g, 45 min), and protein concentration was normalized to 1.7 mg/mL using a standard DC protein assay (Bio-Rad). The resulting proteomes were analyzed by competitive isotopic Tandem Orthogonal Proteolysis Activity-Based Protein Profiling (isoTOP-ABPP). […]
The heavy/light isoTOP-ABPP ratios (R values) for each unique peptide (DMSO/compound treated) were quantified with in-house CIMAGE software (Weerapana et al., 2010) using default parameters (3 MS1 acquisitions per peak and signal to noise threshold set to 2.5). Site-specific engagement of cysteine residues was assessed by blockade of IA-alkyne probe labeling. […] Ratios for unique peptide sequences were calculated for each experiment; overlapping peptides with the same modified cysteine (e.g., different charge states, elution times or tryptic termini) were grouped together and the median ratio was reported as the final ratio (R). […]

primary human T cells [1] = assay: Multidimensional screen for inhibition of T cell activation (IL-2, IFN-γ secretion, CD25, CD69 expression); format: cell-based; conditions: anti-CD3/anti-CD28-stimulated T cells
Method: FIG. 4A-4D is an overview of a multidimensional screen to identify elaborated electrophilic compounds that suppress T cell activation. FIG. 4A is a workflow for T-cell activation screen. Primary human T cells were treated with a focused library of elaborated electrophilic compounds (10 μM, structures of compounds in FIG. 12), a positive control immunosuppressive compound (DMF, 50 μM), or DMSO under TCR-stimulating conditions in 96-well plates pre-coated with 5 μg/mL αCD3 and 2 μg/mL αCD28 for 24 h. T cell activation was measured using a combination of markers, including IL2 and IFNγ secretion, as well as surface expression of CD25 and CD69. T cell viability was measured by flow cytometry using a Fixable Near-IR LIVE/DEAD™ Cell Stain. Compounds were considered as active hits if they reduced IL2 cytokine production by >65% with <15% reduction in T cell viability in the cytotoxicity assay compared to DMSO control. […]
The levels of secreted IL2, IFNγ and TNFα after incubating T cells in the presence of DMSO or electrophilic compounds under TCR-stimulating conditions were measured using DuoSet ELISA cytokine kits (R&D Systems) in clear microplates (R&D Systems) according to manufacturer's instructions and read using a CLARIOstar (BMG Labtech) plate reader (450 nm). All cytokine concentrations were calculated according to the standard curve generated for each experiment.

BIRC2 = BIRC2 (Homo sapiens, UniProt Q13490, C45A); assay: Western blot of BIRC2 content in human T cells; conditions: EV-3 10 μM, AT-406 1 μM, 24 h; transfected primary human T cells
primary human T cells [2] = assay: T cell viability by flow cytometry (near-IR LIVE/DEAD stain); format: cell-based; conditions: concentration-dependent profiles, at <20 μM
Method: FIG. 4A-4D is an overview of a multidimensional screen to identify elaborated electrophilic compounds that suppress T cell activation. FIG. 4A is a workflow for T-cell activation screen. Primary human T cells were treated with a focused library of elaborated electrophilic compounds (10 μM, structures of compounds in FIG. 12), a positive control immunosuppressive compound (DMF, 50 μM), or DMSO under TCR-stimulating conditions in 96-well plates pre-coated with 5 μg/mL αCD3 and 2 μg/mL αCD28 for 24 h. T cell activation was measured using a combination of markers, including IL2 and IFNγ secretion, as well as surface expression of CD25 and CD69. T cell viability was measured by flow cytometry using a Fixable Near-IR LIVE/DEAD™ Cell Stain. Compounds were considered as active hits if they reduced IL2 cytokine production by >65% with <15% reduction in T cell viability in the cytotoxicity assay compared to DMSO control. […] FIG. 4C are structures of active hit compounds selected for follow-up studies, including two acrylamides (BPK-21, BPK-25), two chloroacetamides (EV-3, EV-93) and DMF as a positive control. FIG. 4D are line graphs showing T cell activation and cytotoxicity profiles for selected hit compounds.
Non-tissue culture treated 96-well plates were pre-coated with αCD3 (5 μg/mL) and αCD28 antibodies (2 μg/mL) in PBS (100 μL/well) and left at 4° C. overnight. Freshly isolated T cells were re-suspended in RPMI media supplemented with 10% FBS, L-glutamine (2 mM), penicillin (100 U/mL), and streptomycin ([…]) at 2×10^6 cells/mL. Compound stocks (200×) in DMSO were diluted to 2× stocks in the working RPMI media in another 96-well plate. The pre-coated 96-well treatment plates were washed with PBS ([…]), T cells (100 μL/well, 2×10^5 cells/well) were then added to the wells, followed by the addition of 2× compound stocks in RPMI media (100 μL). The outer wells of the plates were filled with media without cells to avoid the edge effect in the assay. The treatment was done overnight (24 h) at 37° C. in a 5% CO2 containing incubator. Following the treatment, the cells were transferred to a U-bottom 96-well plate and harvested by centrifugation (600 g, 3 min, 4° C.). The supernatants were kept and stored at −80° C. for further cytokine analysis, while the cells were washed with PBS (2×150 μL) prior to staining for flow cytometry analysis.
Following the PBS washes, the cells were stained with fixable near-IR LIVE/DEAD cell stain (Invitrogen) according to manufacturer's instructions. Briefly, one vial of near-IR LIVE/DEAD dye was resuspended in DMSO (50 μL) and diluted with PBS (1:1000). The diluted stain was added to each well (200 μL) and the cells were incubated for 30 min at room temperature in the dark. After this time, the cells were pelleted (600 g, 3 min, 4° C.), washed once with PBS (200 μL/well) and incubated with a freshly made cocktail of antibodies for the appropriate cell surface markers diluted in PBS containing 2% FBS (1:400 antibody dilution).

PDCD1 = molecular target: T2, PDCD1 (Homo sapiens, UniProt Q15116); assay: TMT-ABPP scout fragment sensitivity, PDCD1; format: binding; conditions: activated T cells; 500 μM, 1 h
T2 construct: endogenous in cells
From the text: FIG. 2A-2J provides an overview of chemical proteomic mapping of fragment electrophile-cysteine interactions and reactivity changes in human T cells. […] This protocol was applied to both control and activated T cells. FIG. 2B are structures of scout fragments KB02 and KB05. FIG. 2C-FIG. 2D are pie chart representations of cysteines (C) and proteins (D) liganded with scout fragments. Results were obtained by combining soluble and particulate proteomic fraction data for KB02 and KB05 treatments (500 μM, 1 h) of both control and activated T cells. R-values within each experimental treatment group were derived from 3-5 independent isoTOP-ABPP experiments and 4 independent TMT-ABPP experiments (6 TMT channels). A cysteine was required to be quantified in at least two experiments for each compound treatment or proteomic fraction group to be reported. FIG. 2E are bar graphs showing the total number (left) and percentage (right) of liganded cysteines per total number of cysteines quantified across the indicated reactivity ranges, where cysteine reactivity was determined by isoTOP-ABPP experiments performed with different concentrations of the IA-alkyne probe (10 and 100 μM), as described previously (Weerapana et al., 2010). FIG. 2F are bar graphs showing the total number (left) and percentage (right) of liganded proteins with expression or reactivity changes in activated T cells. […]

T1 sequence (Q99836 whole entry, the tested form may be a part): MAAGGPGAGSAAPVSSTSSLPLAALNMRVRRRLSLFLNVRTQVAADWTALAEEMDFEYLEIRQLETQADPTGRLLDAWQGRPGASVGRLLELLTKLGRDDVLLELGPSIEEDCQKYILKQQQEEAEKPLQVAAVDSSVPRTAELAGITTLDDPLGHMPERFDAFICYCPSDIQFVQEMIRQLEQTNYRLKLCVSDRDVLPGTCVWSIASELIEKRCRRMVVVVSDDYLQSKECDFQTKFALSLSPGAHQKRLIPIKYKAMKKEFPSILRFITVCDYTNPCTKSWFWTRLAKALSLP
Chain of BIRC2 (Q13490 whole entry C45A): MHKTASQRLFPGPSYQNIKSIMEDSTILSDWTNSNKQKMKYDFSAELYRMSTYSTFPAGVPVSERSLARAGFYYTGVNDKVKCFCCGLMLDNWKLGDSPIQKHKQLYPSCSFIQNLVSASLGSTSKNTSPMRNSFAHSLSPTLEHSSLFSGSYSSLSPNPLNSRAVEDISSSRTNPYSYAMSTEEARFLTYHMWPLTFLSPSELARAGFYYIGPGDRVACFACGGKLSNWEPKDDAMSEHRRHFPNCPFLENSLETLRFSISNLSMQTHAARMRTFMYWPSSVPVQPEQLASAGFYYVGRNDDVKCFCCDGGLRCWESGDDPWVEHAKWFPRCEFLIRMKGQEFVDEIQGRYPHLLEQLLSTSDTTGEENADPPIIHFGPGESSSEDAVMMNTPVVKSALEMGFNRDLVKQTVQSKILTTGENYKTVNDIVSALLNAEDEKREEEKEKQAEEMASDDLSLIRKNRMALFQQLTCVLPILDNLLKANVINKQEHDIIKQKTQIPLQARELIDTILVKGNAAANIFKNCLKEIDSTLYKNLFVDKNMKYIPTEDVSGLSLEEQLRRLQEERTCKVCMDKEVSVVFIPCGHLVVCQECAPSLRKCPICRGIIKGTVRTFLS
T2 sequence (Q15116 25-288): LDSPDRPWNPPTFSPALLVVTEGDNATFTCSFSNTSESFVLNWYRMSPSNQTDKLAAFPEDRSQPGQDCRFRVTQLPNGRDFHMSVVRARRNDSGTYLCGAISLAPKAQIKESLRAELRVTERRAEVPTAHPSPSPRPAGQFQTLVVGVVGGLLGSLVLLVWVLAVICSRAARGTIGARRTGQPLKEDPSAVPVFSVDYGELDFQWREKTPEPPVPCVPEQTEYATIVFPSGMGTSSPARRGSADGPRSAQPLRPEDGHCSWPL

SMILES: C=CC(=O)N(c1ccccc1)c1ccc(Br)cc1 [KB05]
modification of MYD88 at either C274 or C280 (tryptic peptide 270-282) (MYD88): covalently modified

SMILES: CCCCS(=N)(=O)CCC(N)C(=O)O (stereo not drawn) [BSO, buthionine sulphoximine]
effect on T cell activation (primary human T cells [1]): did not affect T cell activation

SMILES: CN[C@@H](C)C(=O)N[C@H]1CN(C(=O)CC(C)C)CC[C@H]2CC[C@@H](C(=O)NC(c3ccccc3)c3ccccc3)N2C1=O [AT406]
FLAG-tagged BIRC2 C45A mutant content (BIRC2): still promotes the degradation

SMILES: O=C(c1cccc(N2CCOCC2)c1)N1CCC(N(C(=O)CCl)c2ccccc2)C(Cc2ccccc2)C1 (stereo not drawn) [EV-93]
cytotoxicity (primary human T cells [2]): negligible cytotoxicity

sensitivity of C93 of PDCD1 (PDCD1): KB02-sensitivity | modification of MYD88 at either C274 or C280 (tryptic peptide 270-282) (MYD88): covalently modified
SMILES: COc1ccc2c(c1)CCCN2C(=O)CCl [KB02]
